Data from patent US20260248787A9, “MEDICAMENT FOR TREATING CANCER COMPRISING OPTICALLY ACTIVE AZABICYCLO RING DERIVATIVE” (Sumitomo Pharma Co., Ltd., priority 2023, published 2026).
Where two headings read alike, the source gives them in different places.

Experiment: Phase 1/2 clinical study, plasma pharmacokinetic evaluation
Type: in vivo, human
Settings: for time of maximum concentration: after dosing; for AUC(0-t) / Cmax / Tmax / half-life: human, plasma, oral; for half-life: read-out: t1/2 (converted)
Method: In the present test of the present compound, PK samples have been collected in up to 24 patients dosed in dose groups of 40, 80, 100, and 120 mg BID Arm A, and in dose groups of 40 and 60 mg BID Arm B (Table 6). Large preliminary PK inter-patient variability was observed.
(1) In the present study, PK samples have been collected in up to 42 patients dosed in dose groups of 40, 80, 100, 120, 140 and 200 mg BID Arm A, and in dose groups of 40, 60, 100, and 200 mg BID Arm B (Table 15).
(2) In the present study, PK samples have been collected in patients dosed in dose groups of 40, 80, 100, 120, 140, 200, and 300 mg BID Arm A, and in dose groups of 40, 60, 100, 200, and 300 mg BID Arm B (Table 16).

[1] = 40 mg, 40 mg BID Arm A, C1D1, N=2, mean
[2] = 40 mg, 40 mg BID Arm A, C2D1, N=1
[3] = 40 mg, 40 mg BID Arm B, C1D1, N=4, mean
[4] = 40 mg, 40 mg BID Arm B, C2D1, N=2, mean
[5] = 40 mg, Cycle 1 Day 1, 40 mg BID Arm A (without azole), N=2, mean
[6] = 40 mg, Cycle 1 Day 1, 40 mg BID Arm B (with azole), N=4, mean
[7] = 40 mg, Cycle 2 Day 1, 40 mg BID Arm A (without azole), N=1
[8] = 40 mg, Cycle 2 Day 1, 40 mg BID Arm B (with azole), N=2, mean
[9] = 40 mg, Table 15 cut-off, 40 mg BID Arm A, Cycle 1 Day 1, N=2, mean
[10] = 40 mg, Table 15 cut-off, 40 mg BID Arm A, Cycle 2 Day 1, N=1
[11] = 40 mg, Table 15 cut-off, 40 mg BID Arm B, Cycle 1 Day 1, N=4, mean
[12] = 40 mg, Table 15 cut-off, 40 mg BID Arm B, Cycle 2 Day 1, N=2, mean
[13] = 60 mg, 60 mg BID Arm B, C1D1, N=6, mean
[14] = 60 mg, 60 mg BID Arm B, C2D1, N=4, mean
[15] = 60 mg, Cycle 1 Day 1, 60 mg BID Arm B (with azole), N=6, mean
[16] = 60 mg, Cycle 2 Day 1, 60 mg BID Arm B (with azole), N=4, mean
[17] = 60 mg, Table 15 cut-off, 60 mg BID Arm B, Cycle 1 Day 1, N=6, mean
[18] = 60 mg, Table 15 cut-off, 60 mg BID Arm B, Cycle 2 Day 1, N=4, mean
[19] = 80 mg, 80 mg BID Arm A, C1D1, N=4, mean
[20] = 80 mg, 80 mg BID Arm A, C2D1, N=2, mean
[21] = 80 mg, Cycle 1 Day 1, 80 mg BID Arm A (without azole), N=4, mean
[22] = 80 mg, Cycle 2 Day 1, 80 mg BID Arm A (without azole), N=2, mean
[23] = 80 mg, Table 15 cut-off, 80 mg BID Arm A, Cycle 1 Day 1, N=4, mean
[24] = 80 mg, Table 15 cut-off, 80 mg BID Arm A, Cycle 2 Day 1, N=2, mean
[25] = 100 mg, 100 mg BID Arm A, C1D1, N=2, mean

With C=C1C[C@@H]2CC[C@H]1[C@@H](C(=O)N1CCC3(CC1)CN(c1ncncc1Oc1ccc(F)cc1C(=O)N(C(C)C)C(C)C)C3)N2 [the present compound, 5-fluoro-2-[(4-{7-[(1S,3S,4R)-5-methylidene-2-azabicyclo[2.2.2]octane-3-carbonyl]-2,7-diazaspiro[3.5]nonan-2-yl}pyrimidin-5-yl)oxy]-N,N-di(propan-2-yl)benzamide] the “drug accumulation with repeat dosing” value (40-200 mg BID cut-off) was “minimal drug accumulation”, the “effect of azoles on the exposure” value (40-200 mg BID cut-off) was “do not have a large effect” and the exposure versus dose (40-200 mg BID cut-off) was “Dose-dependent increases in exposures”. The “drug accumulation with repeat dosing” value (40-300 mg BID cut-off) was “minimal drug accumulation”, the “effect of azoles on the exposure” value (40-300 mg BID cut-off) was “do not have a large effect” and the exposure versus dose (40-300 mg BID cut-off) was “Dose-dependent increases in exposures”. For the same compound, the exposure versus dose (Arm A, 40, 80, 100, 120 mg BID) was “a trend of dose-related increased in exposures”, the “impact of azoles on the exposure” value (Arm B compared with Arm A, first cut-off) was “do not have a large or dramatic impact” and the “drug accumulation with repeat dosing” value (Cycle 2 Day 1 vs Cycle 1 Day 1, first cut-off) was “minimal to no drug accumulation”. For the same compound, the “accumulation with repeat dosing” value (FIGS. 4A to 4D cut-off) was “minimal accumulation”, the “large drug-drug interaction (>~2-fold) with azoles” value (FIGS. 4A to 4D cut-off) was “has not identified” and the “time of maximum concentration” value (40-200 mg BID cut-off) was at most 2 h. For the same compound, the “time of maximum concentration” value (40-300 mg BID cut-off) was at most 2 h, the exposure versus dose (doses ≥140 mg BID, FIGS. 4A to 4D cut-off) was “Dose-related increases in exposures” and the AUC(0-t) [1] was 3920 ng·h/mL. The Cmax [1] was 1160 ng/mL, the Tmax [1] was 1.25 h and the half-life [1] was 3.35 h. It also gave an AUC(0-t) [2] of 4710 ng·h/mL, a Cmax [2] of 772 ng/mL and a Tmax [2] of 2 h. It also gave a half-life [2] of 4.57 h, an AUC(0-t) [3] of 3270 ng·h/mL and a Cmax [3] of 976 ng/mL. The Tmax [3] was 0.625 h, the half-life [3] was 4.41 h and the AUC(0-t) [4] was 5330 ng·h/mL. It also gave a Cmax [4] of 987 ng/mL, a Tmax [4] of 1.25 h and a half-life [4] of 7.29 h. The AUC(0-t) [5] was 3960 ng·h/mL, the Cmax [5] was 1160 ng/mL and the AUC(0-t) [6] was 3270 ng·h/mL. The Cmax [6] was 976 ng/mL, the AUC(0-t) [7] was 4730 ng·h/mL and the Cmax [7] was 772 ng/mL. The AUC(0-t) [8] was 5330 ng·h/mL, the Cmax [8] was 987 ng/mL and the AUC(0-t) [9] was 3960 ng·h/mL. The Cmax [9] was 1160 ng/mL, the AUC(0-t) [10] was 4730 ng·h/mL and the Cmax [10] was 772 ng/mL. The AUC(0-t) [11] was 3270 ng·h/mL, the Cmax [11] was 976 ng/mL and the AUC(0-t) [12] was 5330 ng·h/mL. For the same compound, the Cmax [12] was 987 ng/mL, the AUC(0-t) [13] was 4140 ng·h/mL and the Cmax [13] was 1170 ng/mL. The Tmax [13] was 1.08 h, the half-life [13] was 2.61 h and the AUC(0-t) [14] was 2610 ng·h/mL. The Cmax [14] was 703 ng/mL, the Tmax [14] was 0.75 h and the half-life [14] was 3.19 h. For the same compound, the AUC(0-t) [15] was 4240 ng·h/mL, the Cmax [15] was 1170 ng/mL and the AUC(0-t) [16] was 2690 ng·h/mL. It also gave a Cmax [16] of 751 ng/mL, an AUC(0-t) [17] of 4240 ng·h/mL and a Cmax [17] of 1170 ng/mL. It also gave an AUC(0-t) [18] of 2690 ng·h/mL, a Cmax [18] of 751 ng/mL and an AUC(0-t) [19] of 5150 ng·h/mL. The Cmax [19] was 1620 ng/mL, the Tmax [19] was 1.25 h and the half-life [19] was 2.82 h. For the same compound, the AUC(0-t) [20] was 2900 ng·h/mL, the Cmax [20] was 1400 ng/mL and the Tmax [20] was 0.75 h. For the same compound, the half-life [20] was 3.4 h, the AUC(0-t) [21] was 5110 ng·h/mL and the Cmax [21] was 1620 ng/mL. For the same compound, the AUC(0-t) [22] was 2900 ng·h/mL, the Cmax [22] was 1400 ng/mL and the AUC(0-t) [23] was 5110 ng·h/mL. The Cmax [23] was 1620 ng/mL, the AUC(0-t) [24] was 2900 ng·h/mL and the Cmax [24] was 1400 ng/mL. It also gave an AUC(0-t) [25] of 4940 ng·h/mL and a Cmax [25] of 1380 ng/mL.
